Results as given in patent US4180577A, “Furo[2, 3d]pyrimidine derivatives and anti-ulcer containing the same” (Eisai Co., Ltd., priority 1974, dated 1979).
“And” between values parts separate entries of the source, which are not always exact repeats. Equal values may be shown once. Where a name gives a salt, the structure may show the parent alone.

Legend:
[1] = test system: Secretion of Gastric Juice; test: Effect for Secretion of Gastric Juice (pylorus-ligated rats, Shay method); assay type: in vivo, male rats of SD strain; conditions: rat, 100 mg/Kg, into the duodenum; for Amount of gastric juice Vol. / Free Acid Output / Total Acid Output: 4 hours; for Amount of gastric juice Vol.: control 1.78 ± 0.26; for Free Acid Output: control 133.2 ± 32.7; for Total Acid Output: control 154.0 ± 36.0; for suppression of the amount of the gastric juice / suppression of the free acid output / suppression of the total acid output: vs control group
Description: (§1) The compounds to be tested were suspended in 5% serous gum arabic solution, so as to adjust their concentration to 0.5 ml/100 g B.W. for oral administration, or 0.2 ml/100 g B.W. for duodenum administration. Indomethacin, [1-(p-chlorobenzoyl)-5-methoxy-2-methylindole-3-acetic acid] for control was suspended in 5% serous gum arabic solution, so as to adjust its concentration to 0.5 ml/100 g B.W.
The solutions of the compounds to be tested were adjusted to pH 5.0, and administered into the duodenum. The bellys were closed. After 4 hours, the animals were slaughtered by anesthesia, and the gastric juice was collected.
The volume of the gastric juice was measured and titrated by N/50 NaOH solution with Topfer indicator and phenolphthalein indicator, to determine the free acid output the total acid output, respectively.
The compounds to be tested were administered into the duodenum immediately after ligaturing the pylorus.
The medicine solution was adjusted to pH 5.0 with N--NaOH solution.

[2] = test system: Ligature Ulcer of the Pylorus; test: Effect on Ligature Ulcer of the Pylorus; assay type: in vivo, male rats of SD strain; conditions: rat, 300 mg/Kg, into the duodenum, 17 hours
Description: as §1
According to the method by H. Shay et al. [Gastroenterology 5, 43 (1945)], male rats (weighing about 320 g) of SD strain were fasted for 24 hours, and then incised the belly under the ether rausch anesthesia, and finally ligatured the pyloruses. The solution of compounds to be tested were adjusted to pH 5.0, and administered into the duodenum. The bellys were closed. After subsequent 17 hours, the animals were slaughtered by the anesthesia, and their stomaches were extirpated. More particularly, the stomaches were incised along the greater curvature. The ulcer generated at forestomach was ranged as shown in the following. The total of the ranking was named as the ulcer index.
Greater than 1 mm, but not greater
Greater than 3 mm, but not greater
Greater than 5 mm, but not greater

[3] = test system: Immersive Stress-induced Ulcer; test: Inhibitory Effects on the Immersive Stress-induced Ulcer; assay type: in vivo, female rats of SD strain; conditions: rat, oral; for Percentage of inhibition (ulcer index): vs control; for Ulcer index: control 80.4 ± 3.5
Description: as §1
According to the method by K. Takagi et al. [Jap. J. Pharmacol. 18, 9 )1968)], female rats (weighing about 160 g) of SD strain were put in a cage made of wire gauze for restraint, dipped in a water bath at the temperature of 23° C. so as to cover the lower end of their breast bones, and allowed to stand for 20 hours. The animals were then slaughtered by the anesthesia, and their stomaches were extirpated. The stomaches were inflated with 10 ml of physiological saline water, and dipped in 0.5% neutral formalin solution for about 5 minutes according to the method by D. A. Brodie et al [Gastroenterology 38, 354-360 (1960)]. The stomaches were then incised along the greater curvature. The length of each ulcer (erosion) generated at adeno-stomach was measured. The total of said lengthes were assigned as the ulcer index.
The compounds to be tested were orally administered prior to the immersion.

[4] = test system: Cold-restraint Stress Induced Ulcer; test: Inhibitory Effects on Cold-restraint Stress Induced Ulcer; assay type: in vivo, female rats of SD strain; conditions: rat, oral; for Percentage of inhibition (ulcer index) / Ulcer index: 30 minutes prior to stress; for Percentage of inhibition (ulcer index): vs control, hydrobromide; for Ulcer index: control 14.8 ± 1.7
Description: as §1
This experiment was effected by referring to the method by S. Dai et al. [Eur. J. Pharmaco. 26, 15-21 (1974)] and the method by M. M. Goldenberg et al. [Am. J. Dic. Dis 19, 4, 353-360 (1974)].
Female rats of SD strain (weighing about 180 g) were restrained in a cage made of wire gauze, and the cage was allowed to stand in a room at the low temperature at 4° C. for two hours. After subsequent two hours, the animals were slaughtered. The stomaches were extirpated. Thereafter, the subsequent procedure was carried out in accordance with the pharmacological experiment 3.
The compounds to be tested were orally administered 30 minutes prior to exposure of the stress.

[5] = test system: Indomethacin-induced Ulcer; test: Effects on Indomethacin-induced Ulcer; assay type: in vivo, Wister strain male rats; conditions: rat, oral, 30 minutes prior to Indomethacin 40 mg/Kg; for Percentage of inhibition (ulcer index): vs control; for Ulcer index: control 9.30 ± 3.09; for Percentage of Incidence of Ulcer: control 75
Description: as §1
Wister strain male rats (weighing about 230 g) were subjected to the fast for 24 hours. 40 mg/Kg of the Indomethacin were orally administered, respectively. After 4 hours from the administration, the animals were slaughtered and their stomaches were extirpated. The subsequent procedures were carried out in accordance with the pharmacological experiment 3.
The compounds to be tested were orally administered 30 minutes prior to the administration of Indomethacin.

## CCSc1nc(N)c2c(C)coc2n1 [Compound A, 2-Ethylmercapto-4-amino-5-methyl-furo[2, 3d]pyrimidine hydrobromide]
[1]
  Amount of gastric juice Vol.: 0.81 ± 0.15 (ml)/100g B.W.
  Free Acid Output: 41.0 ± 16.6 μEq/100g B.W.
  Total Acid Output: 65.8 ± 20.4 μEq/100g B.W.
  suppression of the amount of the gastric juice: over 54%
  suppression of the free acid output: over 69%
  suppression of the total acid output: over 57%
[2]; vs control
  Percentage of inhibition (ulcer index): 100%
[2]; control 54 ± 14
  Ulcer index: 0 ± 0 mm
[3]; 150 mg/Kg
  Percentage of inhibition (ulcer index): 21.0%
  Ulcer index: 63.5 ± 6.5 mm
[3]; 300 mg/Kg
  Percentage of inhibition (ulcer index): 38.7%
  Ulcer index: 49.3 ± 3.4 mm
[3]; 150 and 300 mg/Kg
  dose dependence of ulcer inhibition: dose dependent
[4]; 50 mg/Kg, 50 mg/kg
  Percentage of inhibition (ulcer index): 78.4% and 78%
[4]; 50 mg/Kg
  Ulcer index: 3.2 ± 1.0 mm
[4]; 100 mg/Kg, 100 mg/kg
  Percentage of inhibition (ulcer index): 85.8% and 86%
[4]; 100 mg/Kg
  Ulcer index: 2.1 ± 0.6 mm
[4]; 50 and 100 mg/Kg
  dose dependence of ulcer inhibition: dose dependent
[5]; 25 mg/Kg
  Percentage of inhibition (ulcer index): 82%
  Ulcer index: 1.67 ± 1.00 mm
  Percentage of Incidence of Ulcer: 38%
[5]; 50 mg/Kg
  Percentage of inhibition (ulcer index): 100%
  Ulcer index: 0 ± 0 mm
  Percentage of Incidence of Ulcer: 0%
[5]; 100 mg/Kg
  Percentage of inhibition (ulcer index): 98%
  Ulcer index: 0.20 ± 0.19 mm
  Percentage of Incidence of Ulcer: 13%

## CSc1nc(N)c2c(C)coc2n1 [B, 2-Methylmercapto-4-amino-5-methyl-furo[2, 3d]pyrimidine hydrobromide]
[1]
  Amount of gastric juice Vol.: 0.51 ± 0.09 (ml)/100g B.W.
  Free Acid Output: 16.5 ± 5.5 μEq/100g B.W.
  Total Acid Output: 37.8 ± 5.6 μEq/100g B.W.
  suppression of the amount of the gastric juice: over 54%
  suppression of the free acid output: over 69%
  suppression of the total acid output: over 57%

## C=CCSc1nc(N)c2c(C)coc2n1 [C, 2-Allylmercapto-4-amino-5-methyl-furo[2, 3d]pyrimidine]
[1]
  Amount of gastric juice Vol.: 0.49 ± 0.11 (ml)/100g B.W.
  Free Acid Output: 18.2 ± 7.1 μEq/100g B.W.
  Total Acid Output: 33.1 ± 7.6 μEq/100g B.W.
  suppression of the amount of the gastric juice: over 54%
  suppression of the free acid output: over 69%
  suppression of the total acid output: over 57%
